# Laboratory results from US20130323767A1, “Method to Identify Liver Toxicity Using Metabolite Profiles” (STRAND LIFE SCIENCES PRIVATE LIMITED, priority 2011, published 2013).
# Tests used:
# Type in all cases: biochemical
# Conditions in all cases: experimental data or published literature, primary rat hepatocyte cultures
# Influx of fatty acids = test: Observed % change in influx of fatty acids, drug-treated hepatocytes
# Description: (§1) Liver specific cells or cell-lines are treated with known doses of drugs or toxicants. Upon treatment, the cells are harvested and cellular extracts prepared. In these extracts, the drug-induced alterations in metabolite profiles can be obtained by any technique such as biochemical assays, mass spectrometry, NMR or any other technique for obtaining metabolite profile known in the art. These are then compared with values obtained in the absence of the drug. Metabolites with significant alterations from their untreated values are identified. This generates what is referred to as altered metabolites 1.
# (§2) All metabolite profiles upon drug treatment are obtained experimentally from primary rat hepatocyte cultures. The drug-induced metabolite profiles are then compared with those from untreated cells to obtain altered metabolites 1. The CMA-ES procedure described above is applied wherein, an initial population of 40 randomly generated parameter sets with fitness criteria of 10^−8 is used and the set of likely altered parameters are estimated for the following drugs. Further, a set of biochemical assays are carried out wherever possible to experimentally measure the level of parameter alteration.
# (§3) For the validation of this disclosure, biochemical enzymatic assays are used. However, methods such as NMR, or mass spectrometry can also be used for metabolite data collection. […]
# fof1ATPase = test: Observed % change in concentration of fof1ATPase
# Description: as §1, §2, §3
# [1] = test system: Glutathione reductase (mitochondrial); test: Observed % change in glutathione reductase (mitochondrial)
# Description: as §1, §2, §3
# [2] = test system: Glutathione peroxidase (mitochondrial); test: Observed % change in glutathione peroxidase (mitochondrial)
# Description: as §1, §2, §3
# [3] = test system: Carnitine palmitoyl transferase; test: Observed % change in carnitine palmitoyl transferase
# Description: as §1, §2, §3
# [4] = test system: Gamma glutamyl cysteine synthetase; test: Observed % change in gamma glutamyl cysteine synthetase
# Description: as §1, §2, §3
# [5] = test system: Glutathione reductase (cytosolic); test: Observed % change in glutathione reductase (cytosolic)
# Description: as §1, §2, §3
# [6] = test system: Glutathione peroxidase (cytosolic); test: Observed % change in glutathione peroxidase (cytosolic)
# Description: as §1, §2, §3
# k proton leak = test: Observed % change in k proton leak
# Description: as §1, §2, §3
# k Ca2+/Na+ = test: Observed % change in k Ca2+/Na+
Compound,"Influx of fatty acids, observed % change (Influx of fatty acids)","Concentration_of_fof1ATPase, observed % change (fof1ATPase)","Glutathione reductase (mitochondrial), observed % change [1]","Glutathione peroxidase (mitochondrial), observed % change [2]","Carnitine palmitoyl transferase, observed % change [3]","Gamma glutamyl cysteine synthetase, observed % change [4]","Glutathione reductase (cytosolic), observed % change [5]","Glutathione peroxidase (cytosolic), observed % change [6]","k proton leak, observed % change (k proton leak)","k Ca2+/Na+, observed % change (k Ca2+/Na+)"
CCCC(CCC)C(=O)O [Valproic acid],−36.00%,−1.00%,−60.00%,−44.00%,−70.00%,−53.00%,40.00%,−22.00%,400.00%,900.00%
O=C(O)Cc1ccccc1Nc1c(Cl)cccc1Cl [Diclofenac],−9.00%,−22.00%,20.00%,21.00%,0.00%,0.00%,360.00%,7.00%,400.00%,900.00%
